Results reported in patent US20250101039A1, “RIFAMYCIN DERIVATIVES FOR THE TREATMENT OF DISEASES” (priority 2022, published 2025).
In brackets after ≈: the same amount, converted by molar mass. Several values for one entry are separate records, joined by “and”; a condition that tells them apart may be missing. Equal values may be shown once.

Columns and labels:
S. aureus = assay: MIC by broth microdilution, S. aureus; format: cell-based, Staphylococcus aureus; details: cation adjusted Mueller Hinton broth, 35° C. 20 hours
A. baumannii = assay: MIC by broth microdilution, A. baumannii (WT); format: cell-based, Acinetobacter baumannii
[1] = tested on: Enterococcus faecium (strain NCTC 12204); assay: MIC by broth microdilution, E. faecium; format: cell-based; details: strain NCTC 12204, cation adjusted Mueller Hinton broth
[2] = tested on: Enterococcus faecalis (strain ATCC 51575); assay: MIC by broth microdilution, E. faecalis; format: cell-based; details: strain ATCC 51575, cation adjusted Mueller Hinton broth
[3] = tested on: Staphylococcus epidermidis (strain ATCC 12228); assay: MIC by broth microdilution, S. epidermidis; format: cell-based; details: strain ATCC 12228, cation adjusted Mueller Hinton broth
[4] = tested on: S. pneumoniae (strain ATCC 49619); assay: MIC by broth microdilution, S. pneumoniae; format: cell-based, Streptococcus pneumoniae; details: strain ATCC 49619, cation adjusted Mueller Hinton broth + 5% laked horse blood
[5] = tested on: S. pyogenes (strain IHMA 1117021); assay: MIC by broth microdilution, S. pyogenes; format: cell-based, Streptococcus pyogenes; details: strain IHMA 1117021, cation adjusted Mueller Hinton broth + 5% laked horse blood
[6] = tested on: H. influenzae (strain ATCC 49247); assay: MIC by broth microdilution, H. influenzae; format: cell-based, Hemophilus influenzae; details: strain ATCC 49247, Hemophilus test medium broth
[7] = tested on: M. abscessus (strain ATCC 19977); assay: MIC by broth microdilution, M. abscessus; format: cell-based, Mycobacterium abscessus; details: strain ATCC 19977, Middlebrook 7H9 broth + ADC
[8] = tested on: M. tuberculosis (H37Rv strain ATCC 27294); format: cell-based, Mycobacterium tuberculosis
[9] = tested on: M. smegmatis (strain ATCC 700084); assay: MIC, M. smegmatis (BacTiter-Glo); format: cell-based, Mycobacterium smegmatis; details: strain ATCC 700084, Middlebrook 7H9 + ADC, 90% growth inhibition, 20 hours
A. baumannii RpoB H535Q = assay: microbe, parasite or virus in culture; format: cell-based, Acinetobacter baumannii; details: Table 4, RPMI + FCS
A. baumannii RpoB H535C = assay: microbe, parasite or virus in culture; format: cell-based, Acinetobacter baumannii; details: Table 4, RPMI + FCS
A. baumannii RpoB H535L = assay: microbe, parasite or virus in culture; format: cell-based, Acinetobacter baumannii; details: Table 4, RPMI + FCS
A. baumannii RpoB I581M = assay: microbe, parasite or virus in culture; format: cell-based, Acinetobacter baumannii; details: Table 5 part 1 c1, clinical isolate, RPMI + 10% FCS
[10] = tested on: A. baumannii RpoB H535Q/S521T; assay: microbe, parasite or virus in culture; format: cell-based, Acinetobacter baumannii
A. baumannii RpoB L542F = assay: microbe, parasite or virus in culture; format: cell-based, Acinetobacter baumannii
A. baumannii RpoB S583L = assay: microbe, parasite or virus in culture; format: cell-based, Acinetobacter baumannii; details: Table 5 part 3 c4, clinical isolate, RPMI + 10% FCS
A. baumannii RpoB N527D = assay: microbe, parasite or virus in culture; format: cell-based, Acinetobacter baumannii; details: Table 5 part 3 c5, clinical isolate, RPMI + 10% FCS

CO[C@H]1/C=C/O[C@@]2(C)Oc3c(C)c(O)c4c(c3C2=O)C2=NC3(CC5CCC(C3)N5)NC2=C(NC(=O)/C(C)=C\C=C\[C@H](C)[C@H](O)[C@@H](C)[C@@H](O)[C@@H](C)[C@H](OC(C)=O)[C@@H]1C)C4=O (single isomer, unassigned) [Compound 12B]
MIC S. aureus (S. aureus): 0.016 µg/mL (≈ 0.0196 µM) | MIC A. baumannii (A. baumannii; RPMI medium supplemented with 10% FCS, 35° C. 20 hours): < 0.002 µg/mL | A. baumannii MIC, WT (A. baumannii; Table 4, RPMI + FCS): ≤0.002 µg/mL | MIC E. faecium [1]: 0.03 µg/mL (≈ 0.0367 µM) | MIC E. faecalis [2]: 0.125 µg/mL (≈ 0.153 µM) | MIC S. epidermidis [3]: < 0.002 µg/mL | MIC S. pneumoniae [4]: < 0.002 µg/mL | MIC S. pyogenes [5]: < 0.002 µg/mL | MIC H. influenzae [6]: 0.06 µg/mL (≈ 0.0734 µM) | MIC M. abscessus [7]: 8 µg/mL | MIC M. tuberculosis [8]: 0.01 µg/mL (≈ 0.0122 µM) | MIC M. smegmatis [9]: 0.32 µg/mL | A. baumannii MIC, RpoB H535Q (A. baumannii RpoB H535Q): ≤0.002 µg/mL | A. baumannii MIC, RpoB H535C (A. baumannii RpoB H535C): ≤0.002 µg/mL | A. baumannii MIC, RpoB H535L (A. baumannii RpoB H535L): 0.03 µg/mL | MIC, RpoB mutation I581M (A. baumannii RpoB I581M): 0.004 µg/mL | MIC, RpoB mutation H535Q/S521T [10]: 0.5 µg/mL and 1 µg/mL | MIC, RpoB mutation L542F (A. baumannii RpoB L542F): 0.002 µg/mL (≈ 0.00245 µM) | MIC, RpoB mutation S583L (A. baumannii RpoB S583L): 0.004 µg/mL | MIC, RpoB mutation N527D (A. baumannii RpoB N527D): ≤0.002 µg/mL
